We go through 17 compounds from US8563714B2, “Bridged spiro [2.4] heptane derivatives as ALX receptor and/or FPRL2 agonists” (Actelion Pharmaceuticals Ltd., priority 2009, dated 2013).

One assay addresses T1, human ALX receptor (Homo sapiens, UniProt P25090).
T1 construct: expressed in transfected cells; host or cells: HEK293 (HEK293-hALXR-Gα16)
T1 sequence (P25090 1-351): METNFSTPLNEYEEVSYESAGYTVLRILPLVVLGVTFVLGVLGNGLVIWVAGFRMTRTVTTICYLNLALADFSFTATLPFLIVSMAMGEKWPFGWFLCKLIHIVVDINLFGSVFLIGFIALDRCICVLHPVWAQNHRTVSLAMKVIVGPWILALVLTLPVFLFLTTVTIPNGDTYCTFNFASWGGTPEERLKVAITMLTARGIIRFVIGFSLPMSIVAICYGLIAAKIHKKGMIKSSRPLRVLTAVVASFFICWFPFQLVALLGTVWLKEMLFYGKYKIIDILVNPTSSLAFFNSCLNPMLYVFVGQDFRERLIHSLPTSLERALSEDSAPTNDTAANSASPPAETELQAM
The assay is described as follows: Intracellular calcium measurements (FLIPR), agonistic activity in HEK293-hALXR-Gα16 cells. The assay is classed as cell-based. As to conditions: Fluo-4 calcium FLIPR, normalized to WKYMVm 10 nM. The method, boiled down: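 Agonist-induced calcium flux was recorded by FLIPR (488/540 nm) in HEK293-hALXR-Gα16 cells pre-loaded with Fluo-4 AM (1 μM, 60 min, 37°C). Peak signal above baseline, after subtracting buffer addition, was expressed relative to WKYMVm at 10 nM final.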
Background: Calcium assays in cells follow changes in intracellular calcium, usually with a dye or a luminescent sensor.

The next assay addresses T2, human FPRL2 (Homo sapiens, UniProt P25089).
T2 construct: expressed in transfected cells; host or cells: HEK293 (HEK293-hFPRL2-Gα16)
T2 sequence (P25089 1-353): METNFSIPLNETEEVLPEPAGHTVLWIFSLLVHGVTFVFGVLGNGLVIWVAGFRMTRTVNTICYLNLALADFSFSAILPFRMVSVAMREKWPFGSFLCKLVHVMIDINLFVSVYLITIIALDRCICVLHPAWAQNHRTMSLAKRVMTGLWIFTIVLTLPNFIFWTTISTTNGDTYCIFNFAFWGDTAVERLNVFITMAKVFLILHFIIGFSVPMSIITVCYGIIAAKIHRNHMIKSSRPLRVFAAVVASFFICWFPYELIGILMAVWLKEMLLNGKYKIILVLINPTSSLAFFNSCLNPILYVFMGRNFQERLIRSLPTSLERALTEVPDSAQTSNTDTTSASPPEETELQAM
In words: Intracellular calcium measurements (FLIPR), agonistic activity in HEK293-hFPRL2-Gα16 cells. Format: cell-based. As to conditions: Fluo-4 calcium FLIPR, normalized to GLY14-Humanin 100 nM. Put shortly: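 Peak values after baseline subtraction are expressed relative to 100 nM Gly14-Humanin; compounds diluted in assay buffer from 10 mM DMSO stocks.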

One may read the EC50 as the midpoint of the concentration-response curve. Turning to `CN(C)C(=O)CCNC(=O)[C@H]1[C@H](C(=O)Nc2ccc(Br)cc2)[C@@H]2C=C[C@H]1C21CC1` (racemic) [Example 204, (5R*)—N^5-(4-Bromophenyl)-(6R*)—N^6-(3-dimethylamino-3-oxopropyl)-(4S*,7R*)-[4,7-ethenylene-spiro[2.4]heptane]-5,6-dicarboxamide], the concentration for a half-maximal effect (EC50) on human ALX receptor stood at 3.4 nM; at human FPRL2, 2080 nM.
`NCCCCCNC(=O)[C@H]1[C@H](C(=O)Nc2ncc(Br)s2)[C@@H]2C=C[C@H]1C21CC1` (racemic) [Example 302, (5R*)—N^5-(5-Bromo-thiazol-2-yl)-(6R*)—N^6-(5-amino-pentyl)-(4S*,7R*)-[4,7-ethenylene-spiro[2.4]heptane]-5,6-dicarboxamide]: the EC50 worked out at 1.3 nM on human ALX receptor and 543 nM at human FPRL2.
On the same counts, the results for `O=C(NC1CCCC1)[C@H]1[C@H](C(=O)Nc2ccc(Br)cc2)[C@@H]2C=C[C@H]1C21CC1` (racemic) [Example 15, (5R*)—N^5-(4-Bromophenyl)-(6R*)—N^6-(cyclopentyl)-(4S*,7R*)-[4,7-ethenylene-spiro[2.4]heptane]-5,6-dicarboxamide] are 1.3 nM and 4400 nM.
Turning to `O=C(NCCCCN1CCCC1)[C@H]1[C@H](C(=O)NCc2cc(C(F)(F)F)ccc2F)[C@@H]2C=C[C@H]1C21CC1` (racemic) [Example 365, (5R*)—N^5-(2-Fluoro-5-trifluoromethylphenyl-methyl)-(6R*)—N^6-(4-pyrrolidino-butyl)-(4S*,7R*)-[4,7-ethenylene-spiro[2.4]heptane]-5,6-dicarboxamide], the concentration for a half-maximal effect (EC50) on human ALX receptor turned out to be 9970 nM; on human FPRL2, 350 nM.
Consider `CC(=O)c1coc(CNC(=O)[C@H]2[C@H](C(=O)NCCCCN3CCCC3)[C@H]3C=C[C@@H]2C32CC2)n1` (racemic) [Example 243, (5R*)—N^5-(4-Acetyl-oxazol-2-yl-methyl)-(6R*)—N^6-(4-pyrrolidin-1-yl-butyl)-(4S*,7R*)-[4,7-ethenylene-spiro[2.4]heptane]-5,6-dicarboxamide], for which the values for the half-maximal effective concentration (EC50) on human ALX receptor and on human FPRL2 were 170 nM and 2300 nM, respectively.
For `CC(=O)c1ccc(CNC(=O)[C@H]2[C@H](C(=O)NCCCCN3CCCC3)[C@H]3C=C[C@@H]2C32CC2)o1` [Example 195, (5R)—N^5-(5-Acetyl-furan-2-yl-methyl)-(6R)—N^6-(4-pyrrolidin-1-yl-butyl)-(4S,7R)-[4,7-ethenylene-spiro[2.4]heptane]-5,6-dicarboxamide], the EC50 on human ALX receptor was 28 nM; on human FPRL2 it was 647 nM.
Regarding `O=C(NCCCCN1CCCCC1)[C@H]1[C@H](C(=O)Nc2ccc(Br)cc2)[C@@H]2C=C[C@H]1C21CC1` [Example 209, (5R)—N^5-(4-Bromophenyl)-(6R)—N^6-(4-piperidino-butyl)-(4S,7R)-[4,7-ethenylene-spiro[2.4]heptane]-5,6-dicarboxamide], the half-maximal effective concentration (EC50) at human ALX receptor amounted to 0.07 nM; on human FPRL2 it was 58 nM.
In the case of `CC(=O)CCCCNC(=O)[C@H]1[C@H](C(=O)NCCCCN2CCCC2)[C@H]2C=C[C@@H]1C21CC1` (racemic) [Example 127, (5R*)—N^5-(5-oxo-hexyl)-(6R*)—N^6-(4-pyrrolidin-1-yl-butyl)-(4S*,7R*)-[4,7-ethenylene-spiro[2.4]heptane]-5,6-dicarboxamide], the EC50 was 95 nM at human ALX receptor and 2740 nM at human FPRL2.
On the same counts, the results for `CC(=O)c1cnc(CNC(=O)[C@H]2[C@H](C(=O)NCCCCN3CCCC3)[C@H]3C=C[C@@H]2C32CC2)s1` (racemic) [Example 351, (5R*)—N^5-[(5-Acetyl-thiazol-2-yl)methyl]-(6R*)—N^6-(4-pyrrolidino-butyl)-(4S*,7R*)-[4,7-ethenylene-spiro[2.4]heptane]-5,6-dicarboxamide] are 6330 nM and 94 nM.
Turning to `CC(C)(CN)CNC(=O)[C@H]1[C@H](C(=O)Nc2ncc(Br)s2)[C@@H]2C=C[C@H]1C21CC1` (racemic) [Example 304, (5R*)—N^5-(5-Bromo-thiazol-2-yl)-(6R*)—N^6-(2,2-dimethyl-3-amino-propyl)-(4S*,7R*)-[4,7-ethenylene-spiro[2.4]heptane]-5,6-dicarboxamide], the EC50 came to 12 nM on human ALX receptor and 1630 nM at human FPRL2.
On to `O=C(NCCCCN1CCCC1)[C@H]1[C@H](C(=O)NCc2cccc(C(F)(F)F)c2F)[C@@H]2C=C[C@H]1C21CC1` (racemic) [Example 357, (5R*)—N^5-(2-Fluoro-3-trifluoromethylphenyl-methyl)-(6R*)—N^6-(4-pyrrolidino-butyl)-(4S*,7R*)-[4,7-ethenylene-spiro[2.4]heptane]-5,6-dicarboxamide], for which the 50% effective concentration (EC50) on human ALX receptor stood at 7910 nM; on human FPRL2, 290 nM.
For the compound `O=C(NC1CC1)[C@H]1[C@H](C(=O)Nc2ccc(Br)cc2)[C@@H]2CC[C@H]1C21CC1` (racemic) [Example 106, (5R*)—N^5-(4-Bromophenyl)-(6R*)—N^6-(cyclopropyl)-(4S*,7R*)-[4,7-ethylene-spiro[2.4]heptane]-5,6-dicarboxamide], the EC50 at human ALX receptor stood at 82 nM; at human FPRL2 it was 2930 nM.
For `O=C(NCCCCN1CCCC1)[C@H]1[C@H](C(=O)NCc2ccc(I)cc2)[C@@H]2C=C[C@H]1C21CC1` (racemic) [Example 200, (5R*)—N^5-(4-Iodophenyl-methyl)-(6R*)—N^6-(4-pyrrolidin-1-yl-butyl)-(4S*,7R*)-[4,7-ethenylene-spiro[2.4]heptane]-5,6-dicarboxamide], in that order: 42 nM and 236 nM.
On to `O=C(C=Cc1ccccc1)NC[C@H]1[C@H](C(=O)Nc2ccc(Br)cc2)[C@@H]2C=C[C@H]1C21CC1` (racemic) [Example 189, (5R*)—N^5-(4-Bromo-phenyl)-(6R*)-6-[(3-phenyl-acryloylamino)-methyl]-(4S*,7R*)-[4,7-ethenylene-spiro[2.4]heptane]-5-carboxamide], for which the EC50 at human ALX receptor is 697 nM; on human FPRL2, 3240 nM.
Take `CCn1nc(C)cc1CCNC(=O)[C@H]1[C@H](C(=O)Nc2ccc(Br)cc2)[C@@H]2C=C[C@H]1C21CC1` (racemic) [Example 76, (5R*)—N^5-(4-Bromophenyl)-(6R*)—N^6-(2-(1-ethyl-3-methyl-1H-pyrazol-5-yl)-ethyl)-(4S*,7R*)-[4,7-ethenylene-spiro[2.4]heptane]-5,6-dicarboxamide]: the 50% effective concentration (EC50) on human ALX receptor turned out to be 77 nM; at human FPRL2, 2430 nM.
For `Cc1cc(C)cc(CNC(=O)[C@H]2[C@H](C(=O)NCCCCN3CCCC3)[C@H]3C=C[C@@H]2C32CC2)c1` (racemic) [Example 358, (5R*)—N^5-(3,5-Dimethylphenyl-methyl)-(6R*)—N^6-(4-pyrrolidino-butyl)-(4S*,7R*)-[4,7-ethenylene-spiro[2.4]heptane]-5,6-dicarboxamide], the concentration for a half-maximal effect (EC50) worked out at 7980 nM at human ALX receptor and 176 nM at human FPRL2.
On to `O=C(NCCCCN1CCCC1)[C@H]1[C@H](C(=O)Nc2c(F)cc(Br)cc2F)[C@@H]2C=C[C@H]1C21CC1` [Example 315, (5R)—N^5-(4-Bromo-2,6-difluorophenyl)-(6R)—N^6-(4-pyrrolidino-butyl)-(4S,7R)-[4,7-ethenylene-spiro[2.4]heptane]-5,6-dicarboxamide], for which the EC50 on human ALX receptor is 9.4 nM; at human FPRL2, 296 nM.
